Data from patent US6133467A, “2,6-di-t-butyl-4-[(dimethyl-4-methoxyphenylsilyl)-methyl-oxy]phenol and 2,6-di-t-butyl-4-[(dimethyl-2-methoxy-phenylsilyl)methyloxy]phenol” (Hoechst Marion Roussel, Inc., priority 1998, dated 2000).
Like-named read-outs stand apart in the source and are kept apart here.

Columns and labels:
[1] = Body weight and liver weight/body weight in cholesterol-fed rabbits; type: in vivo, rabbit (New Zealand White, female); conditions: II and III 0.40%; for body wt. as a percent of control: 70 days in 0.5% cholesterol/10% corn oil chow, diet I 0.15% (0.4% × 7 days, 0% × 7 days, then 0.15% × 56 days); for lw/bw (liver weight / body weight) as a percent of control: 70 days, diet I 0.15%*
Description: (§1) Female New Zealand White rabbits (Hazelton, ~2.0-2.3 kg) were fed 0.5% cholesterol/10% corn oil enriched rabbit chow (Purina # 5322) with or without test compound. The experiment was conducted for 70 days. The test compounds were solubilized in 100% ethanol and sprayed on the chow; control chows were sprayed with ethanol. The chows were dried overnight in a chemical fume hood. Rabbits were fed 100 grams food per day; water was available ad libitum. On the last day of the study rabbits (fasted overnight) were bled (~2 mL) from a marginal ear vein periodically to monitor serum cholesterol levels. The rabbits were euthanized on day 70 by carbon dioxide overdose. The total body and liver weights were recorded in grams. Food consumption was recorded as grams.cndot.day^-1. Aliquots of fresh serum were used for clinical chemistries and copper induced thiobarbituric acid reactive substances (TBARS). Aliquots of serum and livers (~5 gram) were frozen at -20° C. for compound and metabolite concentration determination at a later time.
(§2) % Control = (Mean, treated group / Mean, control group) × (100)
Body wt. = weight in kilograms
liver wt. = weight in kilograms
LW/BW = (liver weight / body weight)

[2] = test system: cholesterol-fed female New Zealand White rabbits (aortic lesions); assay: Antiatherosclerotic effect: aorta staining (Sudan IV) and lesion quantitation in cholesterol-fed female New Zealand White rabbits; type: in vivo, rabbit (New Zealand White; conditions: for Aortic Lesion % of Area, Abdom. (abdominal), as a percent of control: abdominal aorta; for Aortic Lesion % of Area, Abdom. (abdominal), as a percent of control / Aortic Lesion % of Area, Arch, as a percent of control / Aortic Lesion % of Area, Thor. (thoracic), as a percent of control / Aortic Lesion % of Area, Total, as a percent of control: 70 days, diet I 0.15%*, II and III 0.40%; for reduction of total aortic lesions: average, vs control rabbits, 0.15% for Compound I compared to 0.4% for Compound III; for Aortic Lesion % of Area, Thor. (thoracic), as a percent of control: thoracic aorta; for Aortic Lesion % of Area, Total, as a percent of control: total surface area of aorta
Description: as §1
The aortas were dissected from rabbits immediately after they were killed. The aorta from the ascending arch to the iliac bifurcation was excised after debridement of extraneous adipose tissue. Aortas were stored overnight in phosphate buffered saline (PBS)/0.02% sodium azide, pH 7.4, at 4° C. until final debridement. Before staining, aortas were cut open longitudinally and stained with Sudan IV as follows. Sudan IV stain (5.0 g) was added to 500 mL of 70% ethanol, 500 mL of acetone were added, and the solution was stirred overnight at room temperature. The solution was filtered through Whatman #1 filter paper. Aortas were rinsed with 70% ethanol for 10 minutes. They were stained with Sudan IV for 60 min at room temperature, rinsed with 70% ethanol for 5-10 min, and stored in deionized water overnight at 4° C. They were stored in PBS/0.02% sodium azide at 4° C. until imaging could be completed.
The areas containing sudanophilic lesions were quantitated as follows. Aortas were pinned flat onto black plastic sheets, illuminated with several fiber optic light sources, and photographed with a KODAK DCS-420 digital camera mounted on a copy stand. Images were captured and converted to 24 bit color TIFFs with Image Pals image editor software. The resulting images were rescaled to 1024×683 pixels to permit input into the Simple image analysis system and transferred to optical disk storage media. The Simple software was programmed to allow a region of interest to be drawn around the section of the aorta (arch, thoracic, abdominal) which separated the image of the aorta from the pins and the background. the program determined the tissue area in pixels based on pre-selected thresholds of hue, saturation, and intensity. These thresholds were adjusted to recognize the lesion area, and the percent fraction (# lesion pixels/# tissue pixels) was determined. This process was repeated on each portion of the aorta for each rabbit.
as §2
Total = % area of total surface area of aorta covered with lesions
Arch, Thoracic, Abdominal = % area of each segments of the aorta

[3] = HPLC quantitation of serum and liver compound and metabolite concentration; type: in vivo, rabbit (New Zealand White, female); conditions: for concentration at 1680 h: rabbit, po; for Serum Parent: parent compound concentration: 100800 min
Description: as §1
Serum and liver concentrations of parent compounds and the metabolites, bisphenol and diphenoquinone, were determined by reverse phase HPLC using a Waters 990 Powerline system. Mao, S. J. T. et al., Meth. of Enzymol. 234, 517-525 (1994); Satoni, D. K. and Coutant, J. E., J. Chrom. 380, 401-406 (1986). Livers (1 gram) were homogenized with 5.0 mL PBS, pH 7.4, using a Polytron tissue homogenizer at setting 5 for 20-30 seconds. Serum or liver homogenates were extracted as follows: 100 μL of serum or homogenate were added to 2.0 mL diethyl ether: ethanol (3:1) while vortexing the tube. The sample tubes were capped and centrifuged for 10 min at 5° C. at 3500 rpm in a Beckman GPKR centrifuge with a GH 3.7 rotor. The supernatants were transferred to clean tubes and dried under N2. Samples were reconstituted with 200 μL of acetonitrile:hexane:0.1 M ammonium acetate (90:6.5:3.5, by vol.). Then, 100 μL were injected onto a Waters Deltapak C18-300 Å column, and eluted with an 83% acetonitrile: 17% water mobile phase at a flow rate of 1.5 mL/min. Absorbances at the wavelengths of 240, 254, and 420 nm were recorded. Compound concentrations were calculated from known quantities of authentic parent compounds after correction for recovery; the range of recovery from spiked samples was 40 to 100%. The lowest detectable limit for this class of compounds was ~0.5 μg/mL. Concentrations were calculated as of μg/mL serum and of […].
Sample compound concentrations in serum and liver are presented as
μg/mL or μg/g, respectively.
Serum Parent = parent compound concentration as μg/mL of serum
Serum Bis = bisphenol concentration as μg/mL of serum
Serum Quin = diphenoquinone concentration as […]
Liver Parent = parent compound concentration as μg/g liver
Liver Bis = bisphenol concentration as μg/g liver
Liver Quin = diphenoquinone concentration as μg/g liver
0 = value less than detectable limit of HPLC system

[4] = test system: serum lipid oxidation (TBARS); assay: TBARS assay: copper-induced oxidation of serum lipids from treated rabbits; type: in vivo, rabbit (New Zealand White, female); conditions: CuSO4 37° C. 5 hr, diet I 0.15%*, II and III 0.40%
Description: as §1
TBARS are a […] indication of the oxidation of lipids in a sample. Mao, S J T et al. Meth. of Enzymol. 234, 517-525 (1994). In this assay copper sulfate was used to initiate the oxidation serum lipids, resulting in the formation of aldehydes, such as malondialdehyde (MDA). Upon incubation with thiobarbituric acid, the absorbance of the aldehydes was detected at 530-540 nm. TBARS values which are lower than control serum values indicate the relative ability of a test compound to inhibit the oxidation. TBARS were measured as follows: 50 μL of serum were mixed with 50 μL of 0.9% saline and 400 μL of a 5 mmol CuSO4 solution and incubated at 37° C. for 5 hr. The reactions were stopped by addition of 1.0 mL of 20% trichloroacetic acid. […] Absorbances were measured at 540 nm using a Biotek model EL311 microplate reader. The nmoles of MDA produced were calculated from a standard curve of 0 to 10 nmoles of MDA prepared from malonaldehyde bis(dimethyacetal). […]
TBARS = thiobarbituric acid reactive substances, expressed as nmole MDA

[5] = test system: serum cholesterol and triglycerides; assay: Clinical chemistries: serum total cholesterol and triglycerides in cholesterol-fed rabbits; type: in vivo, rabbit (New Zealand White, female); conditions: for TRIG (triglycerides) as a percent of control / chol tot. (total cholesterol) as a percent of control: serum, 70 days, diet I 0.15%*, II and III 0.40%; for increase of triglycerides: vs control rabbits
Description: as §1
Blood was allowed to clot at room temperature for 30 minutes. Serum was obtained after centrifugation for 10 min at 5° C. at 3000 rpm in a Beckman GPKR centrifuge with a GH 3.7 rotor. Fresh serum was analyzed by a COBA MIRA S autoanalyzer (Roche Diagnostics) using Roche diagnostic reagents for total cholesterol (CHOL, kit # 44334) and triglyceride (TG, kit # 44120). Cholesterol and triglycerides were calculated as mg/dL.
as §2
CHOL = total cholesterol mg/dL
TRIG = triglycerides, mg/dL

[6] = liver, diet I 0.15%*, II and III 0.40%, read-out: Liver Parent: parent compound concentration
[7] = liver, read-out: concentration of parent compound in livers
[8] = serum, diet I 0.15% (0.4% × 7 days, 0% × 7 days, then 0.15% × 56 days), II and III 0.40%, read-out: Serum Parent: parent compound concentration
[9] = serum, diet I 0.15% (0.4% × 7 days, 0% × 7 days, then 0.15% × 56 days), II and III 0.40%

SMILES | body wt. as a percent of control [1] [%] | lw/bw (liver weight / body weight) as a percent of control [1] [%] | Aortic Lesion % of Area, Abdom. (abdominal), as a percent of control [2] [%] | Aortic Lesion % of Area, Arch, as a percent of control [2] [%] | reduction of total aortic lesions [2] [%] | Aortic Lesion % of Area, Thor. (thoracic), as a percent of control [2] [%] | Aortic Lesion % of Area, Total, as a percent of control [2] [%] | concentration at 1680 h [3, 6] [ng/g] | concentration at 1680 h [3, 7] [µg/mL] | concentration at 1680 h [3, 8] [µg/mL] | bisphenol and diphenoquinone metabolites in serum and livers [3] | Serum Parent: parent compound concentration [3, 9] [µg/mL] | TBARS (nmole MDA) as a percent of control [4] [%] | TRIG (triglycerides) as a percent of control [5] [%] | chol tot. (total cholesterol) as a percent of control [5] [%] | increase of triglycerides [5]
COc1ccc([Si](C)(C)COc2cc(C(C)(C)C)c(O)c(C(C)(C)C)c2)cc1 [Compound I, 2,6-Di-t-butyl-4-[(dimethyl-4-methoxyphenylsilyl)methyloxy]phenol] | 95 | 89 | 10 | 5 | 96 | 3 | 4 | 44900 | 44.9 | 7.3 | none of the bisphenol and diphenoquinone metabolites of Compounds I or II were detected in either serum or livers | 7.3 | 56 | 22 | 28 | did not show an undesirable increase of triglycerides
COc1ccccc1[Si](C)(C)COc1cc(C(C)(C)C)c(O)c(C(C)(C)C)c1 [Compound II, 2,6-di-t-butyl-4-[(dimethyl-2-methoxyphenylsilyl)methyloxy]phenol] | 98 | 86 | 50 | 56 | – | 44 | 55 | 80900 | 80.9 | 93.3 | none of the bisphenol and diphenoquinone metabolites of Compounds I or II were detected in either serum or livers | 93.3 | 90 | 100 | 79 | did not show an undesirable increase of triglycerides
CC(C)(C)c1cc(SC[Si](C)(C)c2ccccc2)cc(C(C)(C)C)c1O [Compound III, 2,6-di-t-butyl-4-[(dimethylphenylsilyl)methylthio]phenol, reference compound] | 89 | 98 | 30 | 50 | 57 | 30 | 43 | 323000 | 323 | 182 | undesirably high concentrations in both serum and livers | 182.4 | 18 | 783 | 64 | –
